Each block holds one compound with its values, some of them ahead of it.
Assay: Henry solubility constant Hcp at 298.15 K (mol/(m3 Pa))
[1] = reference: Amoore and Buttery (1978)
[2] = reference: Rochester and Symonds (1973)
[3] = reference: Buttery et al. (1971)
[4] = reference: Fenclová et al. (2010)
[5] = reference: Murphy et al. (1983a)
[6] = reference: Wetlaufer et al. (1964)
[7] = reference: Charles and Destaillats (2005)
[8] = reference: Holzwarth et al. (1984)
[9] = reference: Christie and Crisp (1967)

Compound: FC(Cl)C(F)(F)C(F)(F)Cl (configuration not stated) [1,3-dichloro-1,1,2,2,3-pentafluoro-propane]
Henry solubility constant Hcp (reference: Kutsuna (2013)): 0.00011

Henry solubility constant Hcp (reference: Brockbank et al. (2013)): 0.0034
Compound: Cc1ccc(Br)cc1 [1-bromo-4-methylbenzene]

Henry solubility constant Hcp (reference: Buttery et al. (1965)): 0.071
Compound: CCCCCCCCC=O [nonanal]

Henry solubility constant Hcp (reference: Lei et al. (2007)): 0.19
Henry solubility constant Hcp (reference: Shunthirasingham et al. (2013)): 0.21
Henry solubility constant Hcp (reference: Wu et al. (2022a)): 0.17
Compound: CCCCCCCCO [1-octanol]

Henry solubility constant Hcp [1]: 0.49
Compound: C=C(C)[C@@H]1CC=C(C)C(=O)C1 [2-methyl-5-(1-methylethenyl)-2-cyclohexen-1-one]

Henry solubility constant Hcp (reference: Bakierowska and Trzeszczyński (2003)): 0.0012
Compound: C/C=C\CCl [(Z)-1-chloro-2-butene]

Compound: OCC(F)(F)C(F)(F)F [2,2,3,3,3-pentafluoro-1-propanol]
Henry solubility constant Hcp (reference: Chen et al. (2003)): 0.14
Henry solubility constant Hcp [2]: 0.45

Henry solubility constant Hcp [3]: 4
Compound: CCc1cnccn1 [2-ethylpyrazine]

Compound: Brc1cc(Br)c(Oc2cc(Br)c(Br)cc2Br)cc1Br [2,2',4,4',5,5'-hexabromodiphenyl ether]
Henry solubility constant Hcp (reference: Cetin and Odabasi (2005)): 3.5
Henry solubility constant Hcp (reference: Long et al. (2017)): 3.7

Compound: FN(F)N(F)F [dinitrogen tetrafluoride]
Henry solubility constant Hcp (reference: Dean et al. (1973)): 8.4e-06

Henry solubility constant Hcp (reference: Ammari and Schroen (2019)): 0.67
Henry solubility constant Hcp [4]: 0.82
Compound: CC(C)CCO [3-methyl-1-butanol]

Compound: Clc1cc2oc3cc(Cl)c(Cl)cc3c2cc1Cl [2,3,7,8-tetrachlorodibenzofuran]
Henry solubility constant Hcp (reference: Friesen et al. (1993)): 0.59

Henry solubility constant Hcp (reference: Ondo and Dohnal (2007)): 0.083
Compound: C1CCOCC1 [tetrahydropyran]

Compound: O=Cc1ccccc1 [benzaldehyde]
Henry solubility constant Hcp (reference: Allen et al. (1998)): 0.35
Henry solubility constant Hcp (reference: Allou et al. (2011)): 0.32
Henry solubility constant Hcp (reference: Souchon et al. (2004)): 0.34

Compound: Clc1ccc(Cl)c(-c2cccc(Cl)c2Cl)c1 [2,2',3,5'-tetrachlorobiphenyl]
Henry solubility constant Hcp [5]: 0.041

Henry solubility constant Hcp [6]: 2.9e-05
Compound: Cc1c[nH]c2ccccc12 [3-methylindole]

Henry solubility constant Hcp (reference: Nguyen (2013)): 5000
Compound: CC1CNCCN1 (configuration not stated) [2-methylpiperazine]

Compound: Clc1ccccc1-c1ccccc1 [2-chlorobiphenyl]
Henry solubility constant Hcp [7]: 0.03

Compound: ClCC(Cl)Cl [1,1,2-trichloroethane]
Henry solubility constant Hcp (reference: Bobadilla et al. (2003)): 0.012

Henry solubility constant Hcp (reference: Karl et al. (2008)): 50
Compound: CC/C=C/C[C@@H]1C(=O)CC[C@H]1CC(=O)OC [methyl jasmonate]

Compound: OCOO [hydroxymethyl hydroperoxide]
Henry solubility constant Hcp (reference: O’Sullivan et al. (1996)): 16000
Henry solubility constant Hcp (reference: Staffelbach and Kok (1993)): 16000
Henry solubility constant Hcp (reference: Zhou and Lee (1992)): 4700

Henry solubility constant Hcp [3]: 4.5
Compound: Cc1cnccn1 [2-methylpyrazine]

Henry solubility constant Hcp (reference: Wieland et al. (2015)): 0.011
Compound: CCOC(=O)CC(C)C [ethyl 3-methylbutanoate]

Compound: NCl [chloramine]
Henry solubility constant Hcp [8]: 0.92

Henry solubility constant Hcp [4]: 0.64
Compound: CCC(O)CC [3-pentanol]

Compound: O=NCl [nitrosyl chloride]
Henry solubility constant Hcp (reference: Scheer et al. (1997)): > 0.00049

Henry solubility constant Hcp (reference: Haimi et al. (2006)): 0.0048
Compound: CCOC(C)(C)CC [2-ethoxy-2-methylbutane]

Compound: Clc1ccc(-c2ccc(Cl)c(Cl)c2)cc1Cl [3,3',4,4'-tetrachlorobiphenyl]
Henry solubility constant Hcp [7]: 0.029

Henry solubility constant Hcp (reference: Druaux et al. (1998)): 5.5
Henry solubility constant Hcp (reference: Marin et al. (1999)): 7.1
Compound: Cc1cnc(C)cn1 [2,5-dimethylpyrazine]

Henry solubility constant Hcp (reference: Serra and Palavra (2003)): 4.5e-05
Compound: C=CCC [1-butene]

Henry solubility constant Hcp (reference: Khan et al. (1992)): 25
Compound: C=C(C)C(=O)O [2-methyl-2-propenoic acid]

Henry solubility constant Hcp (reference: Ramachandran et al. (1996)): 0.00015
Compound: CC1CCCCC1 [methylcyclohexane]

Compound: CCN [ethanamine]
Henry solubility constant Hcp (reference: Butler and Ramchandani (1935)): 0.99
Henry solubility constant Hcp [9]: 0.8

Henry solubility constant Hcp (reference: Plyasunov (2012)): 2.3e+10
Compound: O[Si](O)(O)O [silicic acid]

Henry solubility constant Hcp (reference: Pollien et al. (2003)): 0.0089
Henry solubility constant Hcp (reference: Roberts and Pollien (1997)): 0.027
Compound: CCOC(=O)C(C)CC (configuration not stated) [ethyl 2-methylbutanoate]

Henry solubility constant Hcp (reference: Wu and Chang (2011)): 0.00013
Compound: OCCC(F)(F)C(F)(F)C(F)(F)C(F)(F)C(F)(F)C(F)(F)C(F)(F)C(F)(F)C(F)(F)C(F)(F)F [1,1,2,2-tetrahydroperfluoro dodecanol]

Compound: COc1c(Cl)cc(Cl)cc1Cl [1,3,5-trichloro-2-methoxybenzene]
Henry solubility constant Hcp (reference: Wu et al. (2022a)): 0.023

Compound: O=C(O)C(F)(F)C(F)(F)F [perfluoropropanoic acid]
Henry solubility constant Hcp (reference: Kwan (2001)): 8.8

Henry solubility constant Hcp (reference: Aprea et al. (2007)): 0.019
Compound: CCCCCC(=O)OC [methyl hexanoate]

Henry solubility constant Hcp (reference: Nguyen (2013)): 6100
Compound: NCCOCCO [diglycolamine]

Henry solubility constant Hcp (reference: Breiter et al. (1998)): 0.038
Henry solubility constant Hcp (reference: Reyes-Pérez et al. (2008)): 0.56
Compound: CCCN(CCC)C(=O)SCC [S-ethyl dipropylthiocarbamate]

Compound: ClN(Cl)Cl [nitrogen trichloride]
Henry solubility constant Hcp [8]: 0.00099

Henry solubility constant Hcp (reference: Lewis et al. (1987)): 9.4e-05
Henry solubility constant Hcp (reference: Ramstedt (1911)): 0.0001
Compound: [Rn] [radon]

Compound: CCCNCCC [dipropylamine]
Henry solubility constant Hcp [9]: 0.19
Henry solubility constant Hcp (reference: Leng et al. (2015a)): 0.12

Henry solubility constant Hcp (reference: Reichl (1995)): 1.4e-05
Compound: FC(C(F)(F)F)C(F)(F)F [1,1,1,2,3,3,3-heptafluoropropane]

Compound: CCSCC [diethyl sulfide]
Henry solubility constant Hcp (reference: Schuhfried et al. (2011)): 0.0035

Compound: ClC1=C(Cl)C2(Cl)C3C4OC4C(Cl)C3C1(Cl)C2(Cl)Cl (configuration not stated) [heptachlorepoxide]
Henry solubility constant Hcp (reference: Warner et al. (1980)): 0.31

Henry solubility constant Hcp (reference: Cady et al. (1922)): 3.7e-06
Henry solubility constant Hcp (reference: Friedman (1954)): 3.8e-06
Henry solubility constant Hcp (reference: Krause and Benson (1989)): 3.9e-06
Henry solubility constant Hcp (reference: Lannung (1930)): 3.8e-06
Henry solubility constant Hcp (reference: Morrison and Johnstone (1954)): 3.7e-06
Henry solubility constant Hcp (reference: von Antropoff (1910)): 6.3e-06
Compound: [He] [helium]

Compound: Clc1cccc(-c2ccc(Cl)c(Cl)c2Cl)c1Cl [2,2',3,3',4-pentachlorobiphenyl]
Henry solubility constant Hcp [5]: 0.049

Henry solubility constant Hcp (reference: Drouillard et al. (1998)): 0.16
Compound: ClCC(Cl)CCCCCCCC(Cl)CCl (configuration not stated) [1,2,10,11-tetrachloroundecane]

Henry solubility constant Hcp (reference: Nguyen (2013)): 1800
Compound: CN1CCNCC1 [N-methylpiperazine]

Compound: Clc1ccc(-c2cc(Cl)c(Cl)cc2Cl)c(Cl)c1 [2,2',4,4',5-pentachlorobiphenyl]
Henry solubility constant Hcp [7]: 0.0088

Compound: FC(F)(F)C(Cl)Cl [2,2-dichloro-1,1,1-trifluoroethane]
Henry solubility constant Hcp (reference: Chang and Criddle (1995)): 0.00032
Henry solubility constant Hcp (reference: Kutsuna (2013)): 0.00023

Henry solubility constant Hcp (reference: Anderson (2011)): 0.00068
Henry solubility constant Hcp (reference: Kutsuna (2017)): 0.00064
Henry solubility constant Hcp (reference: Maaßen (1995)): 0.00069
Henry solubility constant Hcp (reference: Miguel et al. (2000)): 0.0003
Henry solubility constant Hcp (reference: Reichl (1995)): 0.00069
Compound: FCF [difluoromethane]

Compound: CN(C)C [trimethylamine]
Henry solubility constant Hcp [1]: 0.076
Henry solubility constant Hcp [9]: 0.095
Henry solubility constant Hcp (reference: Leng et al. (2015a)): 0.084

Compound: O=COCC(F)(F)F [2,2,2-trifluoroethyl methanoate]
Henry solubility constant Hcp (reference: Kutsuna et al. (2005)): 0.0054

Henry solubility constant Hcp (reference: Nguyen (2013)): 1400
Compound: CC(N)CN (configuration not stated) [1,2-diaminopropane]

Compound: C1CCNCC1 [piperidine]
Henry solubility constant Hcp (reference: Bernauer and Dohnal (2009)): 2.8

Compound: CC(C)C [2-methylpropane]
Henry solubility constant Hcp (reference: McAuliffe (1963)): 8.5e-06
Henry solubility constant Hcp (reference: Mohebbi et al. (2012)): 0.00011
Henry solubility constant Hcp [6]: 9.9e-06

Compound: N=C=O [isocyanic acid]
Henry solubility constant Hcp (reference: Roberts et al. (2011)): 0.21

Henry solubility constant Hcp (reference: Hovorka et al. (2019)): 0.076
Compound: CCCC(=O)CC [3-hexanone]

Henry solubility constant Hcp (reference: Xu and Kropscott (2014)): 1.4e-07
Compound: C[Si](C)(C)O[Si](C)(C)O[Si](C)(C)O[Si](C)(C)C [decamethyltetrasiloxane]

Compound: OCC(F)(F)C(F)F [2,2,3,3-tetrafluoro-1-propanol]
Henry solubility constant Hcp (reference: Chen et al. (2003)): 1.4
Henry solubility constant Hcp [2]: 1.6

Henry solubility constant Hcp (reference: Aprea et al. (2007)): 0.0099
Compound: CCCCCCCC(=O)OC [methyl octanoate]

Henry solubility constant Hcp (reference: Straver and de Loos (2005)): 0.57
Henry solubility constant Hcp (reference: Wu et al. (2022b)): 3.1
Compound: CC(=O)C(C)O (configuration not stated) [3-hydroxy-2-butanone]

Henry solubility constant Hcp (reference: Nguyen (2013)): 200
Compound: CN1CCN(C)CC1 [N,N'-dimethylpiperazine]
